According to ChEMBL document CHEMBL5233265, “Recent advances in the design and development of formyl peptide receptor 2 (FPR2/ALX) agonists as pro-resolving agents with diverse therapeutic potential” (Eur J Med Chem, 2021):

Columns and labels:
Assay type in all cases: cell-based; call rule not given here
fMet-Leu-Phe receptor [1] = molecular target: T1, fMet-Leu-Phe receptor (Homo sapiens, UniProt P21462); assay: Agonist activity at human FPR1 transfected in HL-60 cells assessed as increase in intracellular calcium flux incubated for 30 mins by Fluo-4 AM dye based fluorometer analysis
T1 sequence (P21462 whole entry): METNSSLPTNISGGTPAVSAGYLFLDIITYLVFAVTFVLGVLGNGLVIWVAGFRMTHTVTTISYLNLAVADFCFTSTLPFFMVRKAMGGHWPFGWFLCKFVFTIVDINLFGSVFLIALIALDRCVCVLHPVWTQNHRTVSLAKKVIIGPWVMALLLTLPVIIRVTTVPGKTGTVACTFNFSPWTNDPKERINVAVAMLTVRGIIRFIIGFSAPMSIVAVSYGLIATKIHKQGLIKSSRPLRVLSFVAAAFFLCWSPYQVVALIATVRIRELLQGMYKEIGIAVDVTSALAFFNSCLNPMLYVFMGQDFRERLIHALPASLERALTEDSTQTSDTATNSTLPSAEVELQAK

[2] = molecular target: T2, N-formyl peptide receptor 2 (Homo sapiens, UniProt P25090); assay: Agonist activity at human FPR2 transfected in HL-60 cells assessed as increase in intracellular calcium flux incubated for 30 mins by Fluo-4 AM dye based fluorometer analysis
T2 sequence (P25090 whole entry): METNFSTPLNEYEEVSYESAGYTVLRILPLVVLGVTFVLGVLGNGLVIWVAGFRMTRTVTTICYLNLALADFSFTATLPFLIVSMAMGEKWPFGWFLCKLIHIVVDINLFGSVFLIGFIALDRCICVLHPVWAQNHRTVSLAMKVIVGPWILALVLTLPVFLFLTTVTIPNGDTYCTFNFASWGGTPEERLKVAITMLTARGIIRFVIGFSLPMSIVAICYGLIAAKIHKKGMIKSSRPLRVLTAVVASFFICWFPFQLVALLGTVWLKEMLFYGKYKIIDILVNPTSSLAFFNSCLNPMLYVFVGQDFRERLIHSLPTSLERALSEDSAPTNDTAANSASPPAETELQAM

[3] = molecular target: T3, N-formyl peptide receptor 2 (Homo sapiens) (UniProt P25090); assay: Agonist activity at human FPR2 transfected in HL-60 cells assessed as maximal intracellular calcium flux incubated for 30 mins by Fluo-4 AM dye based fluorometer analysis relative to control; conditions: filed as agonist
T3 sequence (whole entry): T2 sequence (P25090 whole entry)

[4] = molecular target: T3, N-formyl peptide receptor 2 (Homo sapiens); assay: Agonist activity at FPR2 (unknown origin) expressed in CHO/Galpha16 cells assessed as maximal calcium flux at 0.61 to 10000 nM by FLIPR assay relative to control; conditions: dose 0.61-10000 nM
[5] = molecular target: T4, fMet-Leu-Phe receptor (Homo sapiens) (UniProt P21462); assay: Agonist activity at FPR1 (unknown origin) expressed in CHO/Galpha16 cells assessed as maximal calcium flux at 0.61 to 10000 nM by FLIPR assay relative to control; conditions: dose 0.61-10000 nM
T4 sequence (whole entry): T1 sequence (P21462 whole entry)

Homo sapiens = organism: Homo sapiens; assay: Selectivity index, ratio of EC50 for agonist activity at FPR2 (unknown origin) expressed in CHO/Galpha16 cells to EC50 for FPR1 (unknown origin) expressed in CHO/Galpha16 cells
[6] = molecular target: T2, N-formyl peptide receptor 2; assay: Agonist activity at human FPR2 expressed in CHO cells assessed as cAMP level incubated for 1.5 hr by HTRF assay
fMet-Leu-Phe receptor [7] = molecular target: T1, fMet-Leu-Phe receptor; assay: Agonist activity at human FPR1 expressed in CHO cells assessed as cAMP level incubated for 1.5 hr by HTRF assay
[8] = molecular target: T2, N-formyl peptide receptor 2; assay: Agonist activity at FPR2 (unknown origin) expressed in CHO/Galpha16 cells assessed as increase in calcium flux by FLIPR assay
fMet-Leu-Phe receptor [9] = molecular target: T1, fMet-Leu-Phe receptor; assay: Agonist activity at FPR1 (unknown origin) expressed in CHO/Galpha16 cells assessed as increase in calcium flux by FLIPR assay
fMet-Leu-Phe receptor [10] = molecular target: T1, fMet-Leu-Phe receptor; assay: Agonist activity at human FPR1 expressed in CHO cells assessed as increase in calcium flux incubated for 50 mins by FLIPR calcium 5 dye based fluorescence assay
[11] = molecular target: T2, N-formyl peptide receptor 2; assay: Agonist activity at human FPR2 expressed in CHO cells assessed as increase in calcium flux incubated for 50 mins by FLIPR calcium 5 dye based fluorescence assay

`COc1ccc(NC(=O)N[C@H](Cc2ccc(C#N)cc2)C(=O)NCC2(c3ccc(O)cc3)CC2)cc1` was tested, and the EC50 (fMet-Leu-Phe receptor [1]; hl-60) was “Not Active”, the EC50 ([2]; read-out: EC50) was 7000 nM and the Emax [3] was 70%.

Work on `CC(C)C[C@H](NC(=O)CNC(=O)Nc1ccc(Br)cc1)C(=O)O` yielded an Emax [4] of 91%, an Emax [5] of 100% and a Ratio EC50 (Homo sapiens) of 386.

`O=C(Nc1ccc(C(F)(F)F)cc1)N[C@@H]1CCCN(c2ccc(N3CC4(COC4)C3)cc2)C1=O` showed an EC50 [6] of 10 nM.

`NC(=O)c1ccccc1-c1ccc(N2CCCC(NC(=O)Nc3ccc(C(F)(F)F)cc3)C2=O)cc1` (racemic) was tested, and the EC50 [6] was 40 nM.

For `N#Cc1ccc(C[C@H](NC(=O)Nc2ccc(O)cc2)C(=O)NCC2(c3ccccc3)CC2)cc1`, the EC50 (fMet-Leu-Phe receptor [1]; hl-60) was “Not Active” and the EC50 ([2]; hl-60) was “Not Active”.

`CC1(C)CN(c2ccc(-c3ccccc3P(C)(C)=O)c(F)c2F)C(=O)[C@@H]1NC(=O)Nc1cnc(Cl)cn1` showed an EC50 [6] of 57 nM.

Work on `CC(C)C(C(=O)O)C(C)NC(=O)Nc1ccc(Br)cc1` (stereo in doubt; 19) [listing 1 of 2 here] yielded an Emax [4] of 56%, an Emax [5] of 103% and a Ratio EC50 (Homo sapiens) of 249.

Compound `CP(C)(=O)c1ccccc1-c1ccc(N2CC[C@@H](NC(=O)Nc3csc(Cl)c3)C2=O)c(F)c1F` has an EC50 [6] of 2.9 nM.

In the case of `CS(=O)(=O)Nc1ccccc1-c1ccc(N2CCC[C@@H](NC(=O)Nc3cnc(Cl)cn3)C2=O)cc1`, the EC50 [6] is reported as under 5 nM and the EC50 (fMet-Leu-Phe receptor [7]; cho) is reported as “Not Active”.

Work on `NC(=O)c1ccccc1-c1ccc(N2CCC[C@@H](NC(=O)Nc3ccc(C(F)(F)F)cc3)C2=O)cc1` yielded an EC50 [6] of under 5 nM.

Work on `COc1ccc(NC(=O)N[C@@H](Cc2ccc(C#N)cc2)C(=O)NCC2(c3cccc(O)c3)CC2)cc1` yielded an EC50 (fMet-Leu-Phe receptor [1]; read-out: EC50) of 1400 nM, an EC50 ([2]; read-out: EC50) of 180 nM and an Emax [3] of 115%.

Work on `O=C(Nc1ccc(C(F)(F)F)cc1)N[C@@H]1CCCN(c2ccc(-c3ccccc3F)cc2)C1=O` yielded an EC50 [6] of under 5 nM.

`CCC[C@H](NC(=O)CNC(=O)Nc1ccc(Br)cc1)C(=O)O` showed an Emax [4] of 105%, an Emax [5] of 98% and a Ratio EC50 (Homo sapiens) of 62.

`CP(C)(=O)c1ccccc1-c1ccc(N2CC3(CC3)[C@@H](NC(=O)Nc3ccc(Cl)cc3F)C2=O)c(F)c1F` was tested, and the EC50 (fMet-Leu-Phe receptor [7]; read-out: EC50) was over 5000 nM.

`Cc1cccc(C2(NC(=O)N[C@@H]3C(=O)NC[C@H]3c3c(F)cc(Br)cc3F)CC2)n1` was tested, and the EC50 [6] was 10 nM and the EC50 (fMet-Leu-Phe receptor [7]; cho) was “Not Active”.

`CN1CCN(c2ccc(N3CCC[C@@H](NC(=O)Nc4ccc(C(F)(F)F)cc4)C3=O)cc2)CC1` was tested, and the EC50 [6] was 10 nM.

`CS(=O)(=O)NCC1(c2ccc(N3CCC[C@@H](NC(=O)Nc4ccc(C(F)(F)F)nc4)C3=O)cc2)CCCC1` was tested, and the EC50 [6] was under 100 nM and the EC50 (fMet-Leu-Phe receptor [7]; cho) was “Not Active”.

`CC(C)C(C(=O)O)C(C)NC(=O)Nc1ccc(Br)cc1` (stereo in doubt; 19) [listing 2 of 2 here] was tested, and the EC50 [8] was 3240 nM and the EC50 (fMet-Leu-Phe receptor [9]) was 13 nM.

With `Cc1cnc(NC(=O)N[C@@H]2CCCN(c3ccc(-c4ccccc4NS(C)(=O)=O)cc3F)C2=O)cn1` the EC50 [6] was 22 nM and the EC50 (fMet-Leu-Phe receptor [7]; read-out: EC50) was 2000 nM.

For `COc1cc(F)c([C@H]2CCN(CC3CC3)C(=O)[C@@H]2NC(=O)Nc2ccc(Cl)cc2)c(F)c1`, the EC50 (fMet-Leu-Phe receptor [10]) was 1 nM and the EC50 [11] was under 1 nM.

Work on `NC(=O)c1ccccc1-c1ccc(N2CCC[C@@H](NC(=O)Nc3ccc(Cl)cc3)C2=O)cc1` yielded an EC50 [6] of under 5 nM.

`O=C(Nc1ccc(C(F)(F)F)cc1)N[C@@H]1CCCN(c2ccc(N3CCOCC3)cc2)C1=O` showed an EC50 [6] of under 10 nM.

In the case of `O=C(Nc1ccccc1F)N[C@@H]1CCCN(c2ccc(-c3ccccc3F)cc2)C1=O`, the EC50 [6] is reported as 40 nM.

In the case of `COc1ccc(NC(=O)N[C@@H](Cc2ccc(C#N)cc2)C(=O)NCC2(c3ccc(O)cc3)CC2)cc1`, the EC50 (fMet-Leu-Phe receptor [1]; read-out: EC50) is reported as 1300 nM, the EC50 ([2]; read-out: EC50) is reported as 1600 nM and the Emax [3] is reported as 75%.

`COc1ccc([C@@H]2CCN(Cc3ccccn3)C(=O)[C@@H]2NC(=O)Nc2ccc(F)cc2)cc1` (relative stereo) gave an EC50 (fMet-Leu-Phe receptor [10]) of 1 nM and an EC50 [11] of 1 nM.

Work on `COc1cc(F)c([C@H]2CCN(CCC(F)F)C[C@@H]2NC(=O)Nc2ccc(Cl)cc2)c(F)c1` (relative stereo; form 2) yielded an EC50 (fMet-Leu-Phe receptor [10]; cho) of 1 nM and an EC50 [11] of under 1 nM.
